# Target: T1, Human glucocorticoid receptors (Homo sapiens, UniProt P04150)
# T1 construct: made in house; host or cells: Sf9 insect cells, recombinant baculovirus (BAC-TO-BAC)
# T1 sequence (P04150 1-777): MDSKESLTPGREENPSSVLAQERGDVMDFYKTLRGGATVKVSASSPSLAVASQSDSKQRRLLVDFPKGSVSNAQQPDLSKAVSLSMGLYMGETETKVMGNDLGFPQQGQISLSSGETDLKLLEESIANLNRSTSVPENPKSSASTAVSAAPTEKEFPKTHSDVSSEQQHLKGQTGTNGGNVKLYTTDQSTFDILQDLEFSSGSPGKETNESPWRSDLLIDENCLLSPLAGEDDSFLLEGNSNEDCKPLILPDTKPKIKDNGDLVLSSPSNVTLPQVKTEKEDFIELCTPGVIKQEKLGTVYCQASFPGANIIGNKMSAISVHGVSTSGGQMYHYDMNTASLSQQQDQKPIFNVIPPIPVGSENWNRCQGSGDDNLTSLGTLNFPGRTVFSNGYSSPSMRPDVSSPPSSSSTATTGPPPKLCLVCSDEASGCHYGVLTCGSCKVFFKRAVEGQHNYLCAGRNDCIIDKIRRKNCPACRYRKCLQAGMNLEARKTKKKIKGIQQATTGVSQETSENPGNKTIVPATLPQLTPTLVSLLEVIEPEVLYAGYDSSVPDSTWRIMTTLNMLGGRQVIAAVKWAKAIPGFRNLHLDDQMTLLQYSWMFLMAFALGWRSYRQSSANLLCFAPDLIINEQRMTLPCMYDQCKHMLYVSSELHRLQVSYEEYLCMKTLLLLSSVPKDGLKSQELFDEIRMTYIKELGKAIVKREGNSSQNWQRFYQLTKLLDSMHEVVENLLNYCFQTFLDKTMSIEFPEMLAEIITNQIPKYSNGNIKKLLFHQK
# Test: Radioligand filter binding assay, displacement of 3[H]-dexamethasone from hGR
# Settings: read-out: GR Binding (% Inhibition at 1.7 μM)
# Text: Dexamethasone hereafter referred to as dex was purchased from SIGMA. […] Human glucocorticoid receptors were extracted from Sf9 cells infected with a recombinant baculovirus transfer vector containing the cloned hGR genes. Recombinant baculovirus was generated utilizing the BAC-TO-BAC expression system (Life Technologies) in accordance to instruction from the supplier. The hGR coding sequences were cloned into a baculovirus transfer vector by standard techniques. The recombinant baculoviruses expressing hGR were amplified and used to infect Sf9 cells. Infected cells were harvested 48 hrs post infection. […] The concentration of hGR in the extract was measured as specific ^3[H]-dex binding with the G25-assay as described in J. Steroid Biochem. Molec. […] The extract was aliquoted and stored at −70° C.
# The filter binding assay: Dilution series of the test compounds and dex as reference were made from 10 mM (1 mM dex) stock solutions in DMSO. 10 μl of the dilutions was added in duplicates to the wells. The cell extracts were diluted 10 fold in EPMo+MTG buffer (1 mM EDTA, HPO4 20 mM (pH8), 6 mM MTG). […] 110 μl of the diluted ^3[H]-dex were added to the wells. The final concentration of hGR in the experiment was estimated to 1 nM. All preparations were made in […] on ice and with +4° C. temperated buffers. The plates were incubated over night at +4° C. (15-20 hours).
# The incubation was stopped by filtration through GF/B filter on the Tomtec Cellharvester. The filtration on the Tomtec Cellharvester was programmed as follows: 1) Preparation before filtration with EP buffer (1 mM EDTA 20 mM HPO4 (pH8)) 2×[Wash/Asp 0.6 sec., Asp 0.5 sec.]; 2) Prewet of GF/B filter with EP+PEI buffer (EP buffer, 0.3% Polyethylenimine) [Asp 0.8 sec.]; 3) Filtration/harvesting of the 96-well incubation plate 3×[Wash/Asp 0.6 sec., Asp 0.5 sec.]. The GF/B filter was dried for at least 1 hour at 65° C. A MeltiLex scintillation wax was melted onto the filter with the Microsealer. The filter was placed in a samplebag, which was thereafter trimmed with scissors to fit the filter cassette. The cassette were placed in the Microbeta and measured for 1 min/position, returning ccpm (corrected counts per minute).
# b=((bmax−bmin)/(1+(I/IC50)^S))+bminI
# The Microbeta-instrument generates the mean cpm (counts per minute) value/minute and corrects for individual variations between the detectors thus generating corrected cpm values.
row,inhibition at 1.7 µM,Structure (SMILES)
1,91.5%,"Cc1c(NS(C)(=O)=O)cccc1N(Cc1ccccc1)Cc1ccc(Oc2ccc(OCCCCC(=O)NCC(=O)O)cc2)cc1 [Example 261, N-[5-(4-{4-[(benzyl{2-methyl-3-[(methylsulfonyl)amino]phenyl}amino)methyl]phenoxy}phenoxy)pentanoyl]glycine]"
2,92.2%,"Cc1c(NS(C)(=O)=O)cccc1N(Cc1ccccc1)Cc1ccc(Oc2ccc(OCCCCC(=O)NCCC(=O)O)cc2)cc1 [Example 262, N-[5-(4-{4-[(benzyl{2-methyl-3-[(methylsulfonyl)amino]phenyl}amino)methyl]phenoxy}phenoxy)pentanoyl]-beta-alanine]"
3,91.7%,"Cc1c(NS(C)(=O)=O)cccc1N(Cc1ccccc1)Cc1ccc(Oc2ccc(OCCCCC(=O)NCCCC(=O)O)cc2)cc1 [Example 263, 4-{[5-(4-{4-[(benzyl{2-methyl-3-[(methylsulfonyl)amino]phenyl}amino)methyl]phenoxy}phenoxy)pentanoyl]amino}butanoic acid]"
4,89.5%,"Cc1c(NS(C)(=O)=O)cccc1N(Cc1ccccc1)Cc1ccc(Oc2ccc(OCCCCC(=O)N(C)CC(=O)O)cc2)cc1 [Example 264, N-[5-(4-{4-[(benzyl{2-methyl-3-[(methylsulfonyl)amino]phenyl}amino)methyl]phenoxy}phenoxy)pentanoyl]-N-methylglycine]"
5,90%,"Cc1c(NS(C)(=O)=O)cccc1N(Cc1ccccc1)Cc1ccc(Oc2ccc(OCCCCC(=O)N[C@@H](CCC(=O)O)C(=O)O)cc2)cc1 [Example 265, N-[5-(4-{4-[(benzyl{2-methyl-3-[(methylsulfonyl)amino]phenyl}amino)methyl]phenoxy}phenoxy)pentanoyl]-L-glutamic acid]"
6,90.7%,"Cc1c(NS(C)(=O)=O)cccc1N(Cc1ccccc1)Cc1ccc(Oc2ccc(OCCCCC(=O)N[C@H](C(=O)O)C(C)C)cc2)cc1 [Example 266, N-[5-(4-{4-[(benzyl{2-methyl-3-[(methylsulfonyl)amino]phenyl}amino)methyl]phenoxy}phenoxy)pentanoyl]-L-valine]"
7,92.2%,"Cc1c(NS(C)(=O)=O)cccc1N(Cc1ccccc1)Cc1ccc(Oc2ccc(OCCCCC(=O)N3CCC[C@H]3C(=O)O)cc2)cc1 [Example 267, 1-[5-(4-{4-[(benzyl{2-methyl-3-[(methylsulfonyl)amino]phenyl}amino)methyl]phenoxy}phenoxy)pentanoyl]-L-proline]"
8,90.8%,"Cc1c(NS(C)(=O)=O)cccc1N(Cc1ccccc1)Cc1ccc(Oc2ccc(OCCCCC(=O)NC3CCOC3=O)cc2)cc1 (stereo not drawn) [Example 268, 5-(4-{4-[(benzyl{2-methyl-3-[(methylsulfonyl)amino]phenyl}amino)methyl]phenoxy}phenoxy)-N-(2-oxotetrahydrofuran-3-yl)pentanamide]"
9,90.7%,"Cc1c(NS(C)(=O)=O)cccc1N(Cc1ccccc1)Cc1ccc(Oc2ccc(OCCCCC(=O)N[C@@H](CO)C(=O)O)cc2)cc1 [Example 269, N-[5-(4-{4-[(benzyl{2-methyl-3-[(methylsulfonyl)amino]phenyl}amino)methyl]phenoxy}phenoxy)pentanoyl]-L-serine]"
10,91.1%,"CC[C@H](C)[C@H](NC(=O)CCCCOc1ccc(Oc2ccc(CN(Cc3ccccc3)c3cccc(NS(C)(=O)=O)c3C)cc2)cc1)C(=O)O [Example 270, N-[5-(4-{4-[(benzyl{2-methyl-3-[(methylsulfonyl)amino]phenyl}amino)methyl]phenoxy}phenoxy)pentanoyl]-L-isoleucine]"
11,91%,"Cc1c(NS(C)(=O)=O)cccc1N(Cc1ccccc1)Cc1ccc(Oc2ccc(OCC(=O)NCCCC(=O)O)cc2)cc1 [Example 271, 4-{[(4-{4-[(benzyl{2-methyl-3-[(methylsulfonyl)amino]phenyl}amino)methyl]phenoxy}phenoxy)acetyl]amino}butanoic acid]"
12,90.2%,"Cc1c(NS(C)(=O)=O)cccc1N(Cc1ccccc1)Cc1ccc(Oc2ccc(OCC(=O)N(C)CC(=O)O)cc2)cc1 [Example 272, N-[(4-{4-[(benzyl{2-methyl-3-[(methylsulfonyl)amino]phenyl}amino)methyl]phenoxy}phenoxy)acetyl]-N-methylglycine]"
13,91.2%,"Cc1c(NS(C)(=O)=O)cccc1N(Cc1ccccc1)Cc1ccc(Oc2ccc(OCC(=O)N[C@H](C(=O)O)C(C)C)cc2)cc1 [Example 273, N-[(4-{4-[(benzyl{2-methyl-3-[(methylsulfonyl)amino]phenyl}amino)methyl]phenoxy}phenoxy)acetyl]-L-valine]"
14,89.9%,"Cc1c(NS(C)(=O)=O)cccc1N(Cc1ccccc1)Cc1ccc(Oc2ccc(OCC(=O)NC3CCOC3=O)cc2)cc1 (stereo not drawn) [Example 274, 2-(4-{4-[(benzyl{2-methyl-3-[(methylsulfonyl)amino]phenyl}amino)methyl]phenoxy}phenoxy)-N-(2-oxotetrahydrofuran-3-yl)acetamide]"
15,90.5%,"Cc1c(NS(C)(=O)=O)cccc1N(Cc1ccccc1)Cc1ccc(Oc2ccc(OCC(=O)N[C@@H](CO)C(=O)O)cc2)cc1 [Example 275, N-[(4-{4-[(benzyl{2-methyl-3-[(methylsulfonyl)amino]phenyl}amino)methyl]phenoxy}phenoxy)acetyl]-L-serine]"
16,89.2%,"Cc1c(NS(C)(=O)=O)cccc1N(Cc1ccccc1)Cc1ccc(Oc2ccc(OCC(=O)N[C@@H](CC(N)=O)C(=O)O)cc2)cc1 [Example 276, N˜2˜-[(4-{4-[(benzyl{2-methyl-3-[(methylsulfonyl)amino]phenyl}amino)methyl]phenoxy}phenoxy)acetyl]-L-asparagine]"
17,90.6%,"Cc1c(NS(C)(=O)=O)cccc1N(Cc1ccccc1)Cc1ccc(Oc2ccc(OCC(=O)NN)cc2)cc1 [Example 277, N-[3-(benzyl{4-[4-(2-hydrazino-2-oxoethoxy)phenoxy]benzyl}amino)-2-methylphenyl]methanesulfonamide]"
18,90.1%,"Cc1c(NS(C)(=O)=O)cccc1N(Cc1ccccc1)Cc1ccc(Oc2cccc(OC[C@@H]3CCC(=O)N3)c2)cc1 [Example 278, N-(3-{benzyl[4-(3-{[(2S)-5-oxopyrrolidin-2-yl]methoxy}phenoxy)benzyl]amino}-2-methylphenyl)methanesulfonamide]"
19,91.7%,"Cc1c(NS(C)(=O)=O)cccc1N(Cc1ccccc1)Cc1ccc(Oc2cccc(OCCCC(=O)N3CCCC(C(=O)O)C3)c2)cc1 (stereo not drawn) [Example 279, 1-[4-(3-{4-[(benzyl{2-methyl-3-[(methylsulfonyl)amino]phenyl}amino)methyl]phenoxy}phenoxy)butanoyl]piperidine-3-carboxylic acid]"
20,89.5%,"Cc1c(NS(C)(=O)=O)cccc1N(Cc1ccccc1)Cc1ccc(Oc2cccc(OCCCC(=O)N3CCC(C(=O)O)CC3)c2)cc1 [Example 280, 1-[4-(3-{4-[(benzyl{2-methyl-3-[(methylsulfonyl)amino]phenyl}amino)methyl]phenoxy}phenoxy)butanoyl]piperidine-4-carboxylic acid]"
21,90%,"Cc1c(NS(C)(=O)=O)cccc1N(Cc1ccccc1)Cc1ccc(Oc2cccc(OCCCC(=O)N3CCCCC3C(=O)O)c2)cc1 (stereo not drawn) [Example 281, 1-[4-(3-{4-[(benzyl{2-methyl-3-[(methylsulfonyl)amino]phenyl}amino)methyl]phenoxy}phenoxy)butanoyl]piperidine-2-carboxylic acid]"

# Source: patent US6583180B2, “Glucocorticoid receptor modulators” (Abbott Laboratories, priority 2001, dated 2003)
